Key:
myrosinase [1] = assay: Equimolar conversion of glucoraphanin to sulforaphane, ascorbic acid modulating myrosinase activity (Example 4); type: biochemical; conditions: Part 2; 250 mg broccoli seed extract
Experimental: A two-part experiment was conducted to further elucidate the role of ascorbic acid in modulating myrosinase activity. […] A control sample contained no ascorbic acid, and the enzymatic conversion proceeded unassisted by a co-factor. PART 1. […] PART 2. While keeping the amount of broccoli seed extract fixed at 250 mg, the concentration of ascorbic acid was varied from 0.4 mmol/Liter to 3.8 mmol/Liter.

[2] = tested on: broccoli sprout-derived myrosinase; assay: Consumption of glucoraphanin by myrosinase as a function of ascorbic acid concentration (Example 3); type: biochemical; conditions: for glucoraphanin (GR) content of reaction mixture: 38° C.
Experimental: About 250 mg of broccoli seed extract containing about 12% (w/w) glucoraphanin were subjected to hydrolysis by a fixed concentration of broccoli sprout-derived myrosinase in the presence of variable concentration of ascorbic acid, ranging from 0 to 600 μmoles/Liter. The reaction mixtures were thermostated at 38° C.; aliquots were withdrawn every 15 minutes for 60 minutes, and concentration of glucoraphanin determined chromatographically. The rate of glucoraphanin consumption was interpreted as the rate its conversion to sulforaphane. Graphical representation of glucoraphanin content reduction as a function of increasing ascorbic acid concentration results in a series of linear plots; the slopes of the linear regression lines reflect the rate of glucoraphanin consumption, in pmoles/minute. It is apparent that in the presence of 600 μmoles/Liter concentration of ascorbic acid, the reaction rate increased 13-fold relative to that which proceeded in the absence of modulatory effects of ascorbic acid.

myrosinase [3] = assay: Conversion of glucoraphanin to sulforaphane in Simulated Intestinal Fluid (Example 5); type: biochemical, broccoli; conditions: 38° C., 0.25 to 1.00 mmol/Liter ascorbic acid, FIG. 4
Experimental: Simulated Intestinal Fluid (SIF) powder, a commercially supplied concentrate closely approximating the human intestinal content in terms of composition, pH and ionic strength, was used. The experiment utilized a USP Dissolution Apparatus 2 (paddles), where into six dissolution vessels 500 mL of Simulated Intestinal Fluid was dispensed, along with 150 mg of freeze-dried broccoli sprout powder as a source of myrosinase. […] Aliquots were withdrawn every 15 minutes, and assayed for sulforaphane.

heme oxygenase-1 (HO-1) = conditions: oral administration; mammary epithelium; cited from earlier work
[4] = tested on: matrix metalloproteinase-9 (MMP-9) gene expression; assay: MMP-9 gene expression in PC3 cells by quantitative RT-PCR (Example 6); type: cell-based; conditions: PC3, 24 hours
Experimental: The following study was conducted to determine the effect of the combination of sulforaphane and ursolic acid on matrix metalloproteinase-9 (MMP-9) gene expression. The MMP-9 gene encodes the protein that is known to degrade the extracellular matrix, which is the support system of cells. In prostate, colon, brain, and other cancers, MMP9 expression is increased, and this increase has been correlated with metastasis. A decrease in MMP-9 is favorable for these cancers.
In the study, the prostate cancer cell line PC3 was treated with DMSO (vehicle control), sulforaphane (SFN), ursolic acid (UA), or the combination of sulforaphane and ursolic acid, for 24 hours. Gene expression of MMP-9 was analyzed via quantitative RT-PCR. FIGS. 5a and 5b and FIG. C show the results of the study.
Two separate treatments were conducted. […] The following reductions in gene expression of MMP-9 were observed: (i) a 5% decrease with 1 μM SFN alone, (ii) a 31% decrease with 5 μg/mL UA alone, and (iii) a 40% decrease with the combination of 1 μM SFN and 5 μg/mL UA. […] The following reductions in gene expression of MMP-9 were observed: (i) a 13% decrease with 1 μM SFN alone, (ii) a 28% decrease with 5 μg/mL UA alone, and (iii) a 45% decrease with the combination of 1 μM SFN and 5 μg/mL UA.
The following reductions in gene expression of MMP-9 were observed: (i) a 39% decrease with 5 μM SFN alone, (ii) a 15% decrease with 10 μg/mL UA alone, and (iii) a 59% decrease with the combination of 5 μM SFN and 10 μg/mL UA.

[5] = tested on: NAD(P)H:quinine oxidoreductase (NQO1); conditions: oral administration; mammary epithelium; cited from earlier work

O=C1O[C@H]([C@@H](O)CO)C(O)=C1O [Ascorbic Acid, ascorbic acid]
ascorbic acid concentration up to which myrosinase-promoted conversion increases apparently linearly, then levels off (myrosinase [1]): about 2 mmol/L | Slope of linear regression (rate of glucoraphanin consumption) ([2]; 50 μM ascorbic acid): -0.286 µmol/min | glucoraphanin (GR) content of reaction mixture ([2]; 50 μM ascorbic acid, 0 min): 93.36 µmol | glucoraphanin (GR) content of reaction mixture ([2]; 50 μM ascorbic acid, 15 min): 89.20 µmol | glucoraphanin (GR) content of reaction mixture ([2]; 50 μM ascorbic acid, 30 min): 84.24 µmol | glucoraphanin (GR) content of reaction mixture ([2]; 50 μM ascorbic acid, 45 min): 80.30 µmol | glucoraphanin (GR) content of reaction mixture ([2]; 50 μM ascorbic acid, 60 min): 76.36 µmol | Slope of linear regression (rate of glucoraphanin consumption) ([2]; 125 μM ascorbic acid): -0.5622 µmol/min | glucoraphanin (GR) content of reaction mixture ([2]; 125 μM ascorbic acid, 0 min): 93.36 µmol | glucoraphanin (GR) content of reaction mixture ([2]; 125 μM ascorbic acid, 15 min): 84.52 µmol | glucoraphanin (GR) content of reaction mixture ([2]; 125 μM ascorbic acid, 30 min): 75.92 µmol | glucoraphanin (GR) content of reaction mixture ([2]; 125 μM ascorbic acid, 45 min): 68.09 µmol | glucoraphanin (GR) content of reaction mixture ([2]; 125 μM ascorbic acid, 60 min): 59.41 µmol | Slope of linear regression (rate of glucoraphanin consumption) ([2]; 250 μM Filtered ascorbic acid): -0.4714 µmol/min | glucoraphanin (GR) content of reaction mixture ([2]; 250 μM Filtered ascorbic acid, 0 min): 93.36 µmol | glucoraphanin (GR) content of reaction mixture ([2]; 250 μM Filtered ascorbic acid, 15 min): 86.31 µmol | glucoraphanin (GR) content of reaction mixture ([2]; 250 μM Filtered ascorbic acid, 30 min): 79.44 µmol | glucoraphanin (GR) content of reaction mixture ([2]; 250 μM Filtered ascorbic acid, 45 min): 71.94 µmol | glucoraphanin (GR) content of reaction mixture ([2]; 250 μM Filtered ascorbic acid, 60 min): 65.18 µmol | Slope of linear regression (rate of glucoraphanin consumption) ([2]; 250 μM ascorbic acid): -0.7901 µmol/min | glucoraphanin (GR) content of reaction mixture ([2]; 250 μM ascorbic acid, 0 min): 93.36 µmol | glucoraphanin (GR) content of reaction mixture ([2]; 250 μM ascorbic acid, 15 min): 80.95 µmol | glucoraphanin (GR) content of reaction mixture ([2]; 250 μM ascorbic acid, 30 min): 69.06 µmol | glucoraphanin (GR) content of reaction mixture ([2]; 250 μM ascorbic acid, 45 min): 57.63 µmol | glucoraphanin (GR) content of reaction mixture ([2]; 250 μM ascorbic acid, 60 min): 45.76 µmol | Slope of linear regression (rate of glucoraphanin consumption) ([2]; 400 μM ascorbic acid): -1.007 µmol/min | glucoraphanin (GR) content of reaction mixture ([2]; 400 μM ascorbic acid, 0 min): 93.36 µmol | glucoraphanin (GR) content of reaction mixture ([2]; 400 μM ascorbic acid, 15 min): 78.32 µmol | glucoraphanin (GR) content of reaction mixture ([2]; 400 μM ascorbic acid, 30 min): 62.78 µmol | glucoraphanin (GR) content of reaction mixture ([2]; 400 μM ascorbic acid, 45 min): 47.67 µmol | glucoraphanin (GR) content of reaction mixture ([2]; 400 μM ascorbic acid, 60 min): 33.15 µmol | Slope of linear regression (rate of glucoraphanin consumption) ([2]; 600 μM ascorbic acid): -1.2 µmol/min | glucoraphanin (GR) content of reaction mixture ([2]; 600 μM ascorbic acid, 0 min): 93.36 µmol | glucoraphanin (GR) content of reaction mixture ([2]; 600 μM ascorbic acid, 15 min): 75.02 µmol | glucoraphanin (GR) content of reaction mixture ([2]; 600 μM ascorbic acid, 30 min): 55.66 µmol | glucoraphanin (GR) content of reaction mixture ([2]; 600 μM ascorbic acid, 45 min): 37.50 µmol | glucoraphanin (GR) content of reaction mixture ([2]; 600 μM ascorbic acid, 60 min): 22.09 µmol | increase of reaction rate relative to absence of ascorbic acid ([2]; 600 μmoles/Liter ascorbic acid): 13 fold | sulforaphane yield versus ascorbic acid concentration (myrosinase [3]): direct correlation between larger yield of sulforaphane and higher concentrations of ascorbic acid

C[S+]([O-])CCCCN=C=S (centres unmarked) [SFN, 1-isothiocyanato-4-methylsulfinylbutane]
elevated immunostaining of HO-1 enzyme (heme oxygenase-1 (HO-1)): 4 fold | decrease in gene expression of MMP-9 ([4]; 1 μM SFN alone, Part 1 first treatment (FIG. 5a)): 5% | decrease in gene expression of MMP-9 ([4]; 1 μM SFN alone, Part 1 second treatment (FIG. 5b)): 13% | decrease in gene expression of MMP-9 ([4]; 5 μM SFN alone, Part 2 (FIG. 6)): 39% | increase in NQO1 enzymatic activity [5]: 3 fold

C[C@H]1[C@H](C)CC[C@]2(C(=O)O)CC[C@]3(C)C(=CC[C@@H]4[C@@]5(C)CC[C@H](O)C(C)(C)[C@@H]5CC[C@]43C)[C@H]12 [UA, (1S,2R,4aS,6aR,6aS,6bR,8aR,10S,12aR,14bS)-10-hydroxy-1,2,6a,6b,9,9,12a-heptamethyl-2,3,4,5,6,6a,7,8,8a,10,11,12,13,14b-tetradecahydro-1H-picene-4a-carboxylic acid]
decrease in gene expression of MMP-9 ([4]; 5 μg/mL UA alone, Part 1 first treatment (FIG. 5a)): 31% | decrease in gene expression of MMP-9 ([4]; 5 μg/mL UA alone, Part 1 second treatment (FIG. 5b)): 28% | decrease in gene expression of MMP-9 ([4]; 10 μg/mL UA alone, Part 2 (FIG. 6)): 15%
